In patent US4939256A, “Novel platinum complex, antineoplastic agent containing the same, and intermediate therefor” (Kanebo Ltd., priority 1988, dated 1990):

How the values were obtained:
Leukemia P388 = test: Experiment 1: Test of antitumor activity (increase in life span of tumor-bearing mice); type: in vivo, BDF1 male mice; conditions: intraperitoneal, P388 in BDF1 mice; for Increase in life span (ILS %): observed until 30th day
Description: (a) Animals: BDF1 male mice (6 week age, weighing 22 to 25 g, 4 animals per each group)
(b) Tumor cells: Leukemia P388
Tumor cells (1×10^6 per mouse) were intraperitoneally inoculated into mice. After 24 hours, a solution of each test compound in physiological saline solution was intraperitoneally administered to the mice. In control mice, only physiological saline solution was intraperitoneally administered.
Survival days of the mice was observed until 30th day after the inoculation of tumor cells. Mean survival days (X) in the mice administered with test compound and mean survival days (Y) in the control mice were measured, and the increase in life span (ILS %) was calculated by the following equation: [formula]

[1] = prior art, clinically used; cited from earlier work
kidney = test: Experiment 3: Side effect on kidney (blood urea nitrogen value); type: in vivo, BDF1 male mice; conditions: intraperitoneal, 4th day after administration, versus control mice
Description: It was studied in the blood urea nitrogen value (BUN value) as an index.
(§1) (a) Animal: BDF1 male mice (6 week age, weighing 22-25 g, 5 animals per each group)
Each test compound was dissolved in a physiological saline solution, and the solution (0.1 ml/10 g body weight) was intraperitoneally administered. In the control mice, only the physiological saline solution (0.1 ml/10 g body weight) was intraperitoneally administered. On the 4th day after the administration, the test compound-administered mice and the control mice were bleeded from the femoral artery, and the collected blood was centrifuged at 3,000 r.p.m. at 4° C. for 15 minutes to give a test serum. BUN value in the test serum was measured by a urease indophenol method using a kit for measuring urea nitrogen (Urea NB-Test Wako, manufactured by Wako Pure Chemical Industries, Ltd.). That is, the above test serum (20 μl) was taken in a test tube and thereto was added color reagent A [a mixture of a urease solution (one part by volume) and phosphate buffer (pH 7.0, 20 parts by volume), 2.0 ml], and the mixture was mixed well and incubated at 37° C. for 15 minutes. […]
The absorbance of the standard solution and test solution was measured at 570 nm with a spectrophotometer with reference to the blank solution as a control, and BUN value in the test serum was calculated by the following equation: [formula] […]

BDF1 male mice = test: Experiment 4: Acute toxicity (LD50); type: in vivo; conditions: intraperitoneal, until 14th day, Weil method
Description: as §1
Each test compound was dissolved or suspended in a physiological saline solution, and the solution or suspension (0.1 ml/10 g body weight) was intraperitoneally administered to mice. The number of mice that died was counted until 14th day after administration of test compound, and the acute toxicity (LD50) was calculated by Weil method.

[2] = test system: Cisplatin-resistant L1210 cells (L1210/DDP) and L1210 cells; test: Experiment 2: Effects on cisplatin-resistant tumor cells (growth inhibition, resistance index); type: cell-based; conditions: L1210/DDP versus L1210, from IC50 after 48 hours; for Resistance index, maximum: maximum of 2 to 4 tests; for Resistance index, Mean: mean of 2 to 4 tests; for Resistance index, minimum: minimum of 2 to 4 tests
Description: 2. Cisplatin-resistant L1210 cells (hereinafter, referred to as L1210/DDP), which is available from Cancer Chemotherapy Center, Japanese Foundation for Cancer Research
RPMI-1640 medium containing 10% (v/v) fetal bovine serum, which was prepared as follows:
RPMI-1640 (manufactured by GIBCO) (10.4 g), sodium hydrogen carbonate (1.3 g), streptomycin sulfate ([…]), penicillin G potassium ([…]) and a 1% aqueous solution of β-mercaptoethanol (40 μl) were dissolved in distilled water (one liter). To this mixture (90 parts by volume) was added fetal bovine serum (manufactured by GIBCO) (10 parts by volume) to give RPMI-1640 medium containing 10% (v/v) fetal bovine serum (hereinafter, referred to as "serum-containing RPMI-1640 medium").
L1210 cells or L1210/DDP cells were added to the serum-containing RPMI-1640 medium to prepare a cell suspension (3×10^5 cells/ml). The cell suspension (each 1 ml) was seeded onto a microplate (Falcon 3047, manufactured by Falcon) and cultivated in air containing 5% CO2 gas at 37° C. (one group, 3 wells). After cultivating for 24 hours, a solution of each test compound (1 ml) (which was prepared by dissolving each test compound in the serum-containing RPMI-1640 medium in various concentrations) was added to the medium, and the mixture was cultivated under the same conditions for 48 hours. After the cultivation, the number of viable cells was counted by Trypan Blue exclusion test method, and the mean number of viable cells in each group was calculated. Besides, in the control group, the above was repeated by using the serum-containing RPMI-1640 medium instead of the solution of test compound, and the mean number of viable cells in the control group was calculated likewise. From the mean number of viable cells in various concentration of test compound and the mean number of viable cells in the control group, the concentration required for 50% inhibition of growth (IC50) was calculated by probit method. Then, the resistance index of test compound was calculated by the following equation: [formula]
The above test was repeated for 2 to 4 times, and the mean resistance index was obtained.

Compound | dose showing maximum increase in life span in Experiment 1 (Leukemia P388) [mg/kg] | Increase in life span (ILS %) (Leukemia P388; 25 mg/kg) [%] | Increase in life span (ILS %) (Leukemia P388; 50 mg/kg) [%] | Increase in life span (ILS %) (Leukemia P388; 100 mg/kg) [%] | also measured
N.N.[Cl][Pt][Cl] [Cisplatin, cisdiamminedichloroplatinum (II), reference compound] | 10 |  |  |  | Increase in life span (ILS %) (Leukemia P388; 5 mg/kg): 108%; Increase in life span (ILS %) (Leukemia P388; 10 mg/kg): 167%; Increase in life span (ILS %) (Leukemia P388; 20 mg/kg): -11%; antineoplastic activity, in words [1]: excellent antineoplastic activity; Rate of change of BUN value (%) (kidney; 10 mg/kg): +106%; Rate of change of BUN value (%) (kidney; 15 mg/kg): +128%
a mixture of α-glycolato-(3RS)-3-aminopiperidine platinum (II) (Isomer b-1) and β-glycolato-(3RS)-3-aminopiperidine platinum (II) (Isomer b-2) [Platinum complex B-1] | 50 | 131 | 174 | -45 | LD50 (BDF1 male mice): 57.0 mg/kg; Resistance index, maximum [2]: 5.4; Resistance index, Mean [2]: 4.3; Resistance index, minimum [2]: 3.2
a mixture of α-glycolato-(3RS)-3-aminopyrrolidine platinum (II) (Isomer a-1) and β-glycolato-(3RS)-3-aminopyrrolidine platinum (II) (Isomer a-2) [Platinum complex A-3] | 50 | 111 | 170 | 26 | LD50 (BDF1 male mice; 20160 min): 107.0 mg/kg; Resistance index, maximum ([2]; 2880 min): 4.6; Resistance index, Mean ([2]; 2880 min): 4.6; Resistance index, minimum ([2]; 2880 min): 4.6
O=C1C[O][Pt]2([NH]C3CC[N]2C3)[O]1 (racemic) [Platinum complex A-2, α-glycolato-(3RS)-3-aminopyrrolidine platinum (II)] | 50 | 108 | 172 | 115 | 
a mixture of α-glycolato-(3RS)-3-aminopyrrolidine platinum (II) (Isomer a-1) and β-glycolato-(3RS)-3-aminopyrrolidine platinum (II) (Isomer a-2) [Platinum complex A-1] | 50 | 74 | 167 | -43 | 
